Measured values published in patent US20100297056A1, “COMPOSITION BASED ON PERHYDROSQUALENE AND COLLAGEN-POLYVINYLPYRROLIDONE FOR FILLING MINOR CUTANEOUS DEPRESSIONS” (ASPID, S.A. DE C.V., priority 2007, published 2010).

Assays:
rat skin = test: murine model of intradermal administration of implant materials; type: in vivo, rats; conditions: sensorial analog scale, papule palpation
Procedure: Because of the above, a murine model essay of intradermal administration was designed, wherein several implant materials were evaluated such as natural and synthetic jojoba oil, peanut oil and perhydrosqualene, mixed with collagen-polyvinylpyrrolidone, various emulsifiers and a gelling agent (dibutyl-lauroyl glutamide). The administration of the implant materials generated papules, formed by the deposition of the material in the reticular dermis of the back of the rats. The papules were evaluated with regard to the tolerance of the tissue to the implant through a visual analog scale during a period of about 30 days, with their intervals; moreover, the eventual occurrence of skin changes such as irritation, ischemia formation and in some cases tissue necrosis related to the implanted material were reported, as well as the durability of the bioimplant that was quantified through a sensorial analog scale derived from the papule palpation.
In the same way, histological rat skin changes were evaluated through biopsies obtained from the implant infiltrated site, said biopsies were collected at different times in order to determine whether changes occurred in the internal skin structure, as well as to observe the implant site, the inflammatory infiltrate, the ratio between type I and type III collagens, as well as the possible formation of granulomes.

[1] = in vivo; cited from earlier work
[2] = humans; cited from earlier work
[3] = mice; cited from earlier work
[4] = excreted through natural routes; cited from earlier work
[5] = rats, oral, three-month period; cited from earlier work
[6] = dogs, cited from earlier work

## CC(C)CCCC(C)CCCC(C)CCCCC(C)CCCC(C)CCCC(C)C (stereo not drawn) [perhydrosqualene, 2,6,10,15,19,23-hexamethyltetracosane]
Rat skin
  durability of the bioimplant in the tissue: constant even 15 days after its administration
[1]
  mean lethal dose DL50: > 20 mL/kg
[2]
  cutaneous and ocular irritation: absence of cutaneous and ocular irritation
[3]
  irritation after subcutaneous injections: absence of cutaneous and ocular irritation
[4]
  metabolism: non-metabolizable
[5]
  signs of toxicity: did not show signs of toxicity
[6]; 1200 mg/kg during 14 days
  blood level: 30 ppm
  perhydrosqualene excretion: 65-90 % per day
[6]; day 56 after the first dose
  perhydrosqualene in blood on day 56: not detectable
